Experimental findings from ChEMBL document CHEMBL1201862, “PubChem BioAssay data set” (2004) are described below.

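How tested: cells in 96-well plates exposed to compound for 48 hours at five concentrations. GI50 is the concentration that inhibits growth by half.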 Activity calls are given as the source filed them. No stated cut-off is given here; in the data, active = GI50 up to about 1.1 µM and inactive = higher. Some results are limits rather than exact numbers.

Common to all, as to experiment: DTP human tumour cell line panel, 48 h
For test [1], the system named is SW-620.
The test system of test [2] is MDA-MB-231.
In test [3] the test system is TK-10.
Test [4] has as its system PC-3.
In test [5] the test system is 786-0.
Test [6] has as its system U-251.
For test [7], the system named is UACC-257.
The subject of test [8] is OVCAR-4.
Test [9] relates to HOP-62.
For test [10], the system named is SK-OV-3.
The test system of test [11] is OVCAR-5.
For test [12], the system named is COLO 205.
Test [13] deals with SF-295.
Test [14] has as its system HCT-116.
Test [15] deals with NCI-H226.
For test [16], the system named is OVCAR-3.
In test [17] the test system is NCI-H460.
For test [18], the system named is SR.
In test [19] the test system is HCC 2998.

Broadly, the GI50 is the concentration at which growth is held to half of that of the control. With `Oc1ccc(Cc2cc(Cl)cc(Cl)c2O)cc1Cl`, the GI50 in [1] is 16.6 µM (inactive); in [2] it was 18.6 µM (inactive); in test [3], 16.3 µM (inactive); in [4] it was 17.7 µM (inactive); in test [5] it was 20.3 µM (inactive); in test [6], 19.2 µM (inactive). Further, the GI50 was 15.9 µM (inactive) in test [7]; 23.3 µM (inactive) in test [8]; 19.2 µM (inactive) in test [9]; 27.1 µM (inactive) in test [10]; 18.4 µM (inactive) in [11]; 19 µM (inactive) in test [12]. Moreover, the GI50 in test [13] is 19 µM (inactive); in [14], 18.7 µM (inactive); in test [15], 21.1 µM (inactive); in [16], 18.7 µM (inactive); in test [17] it was 17.8 µM (inactive); in test [18] it was 14.2 µM (inactive).

Regarding `C1CNCCN2CCCNCCN(C1)CC2`, the GI50 in test [1], in [2], in [3], in test [4], in test [5] and in test [6] was > 100 µM (inactive) each time. Besides, the GI50 in [7], in test [8], in [9], in test [10], in [11] and in test [12] was > 100 µM (inactive) throughout. For the same molecule, the GI50 in test [13], in test [14], in test [15], in test [16], in [17] and in [18] was > 100 µM (inactive) each time.

Take `Cc1cc2c(s1)C(N)CC2=O` (stereo not given): the GI50 in test [1], in [2], in [3], in test [4], in test [5] and in test [6] was > 100 µM (inactive) in each case. Further, the GI50 in [7], in test [9], in test [10], in test [11], in test [12] and in [14] was > 100 µM (inactive) in each case. The GI50 in test [16], in test [17], in test [19] and in [18] was > 100 µM (inactive) each time.

For the molecule `O=C(Cc1nc2ncccc2[nH]c1=O)c1c[nH]c2ccccc12`, the GI50 is 17.1 µM (inactive) in [1]; 16.7 µM (inactive) in test [2]; 16.7 µM (inactive) in test [3]; 16 µM (inactive) in test [4]; 18.2 µM (inactive) in test [5]; 17.7 µM (inactive) in test [6]. In addition, the GI50 in [7] is 19.5 µM (inactive); in [9], 18.7 µM (inactive); in test [10] it was 16.3 µM (inactive); in [11] it was 24.2 µM (inactive); in test [12], 16.3 µM (inactive); in [13], 16.5 µM (inactive). The GI50 in test [14] was 22.2 µM (inactive); in test [16] it was 18 µM (inactive); in test [17], 17.3 µM (inactive); in [19], 19.8 µM (inactive); in test [18], 30 µM (inactive).

Take `CC(C)(C)OC(=O)n1cc(C2CN(O)C(=O)C23CCC(=O)N3Cc2ccccc2)c2ccccc21` (stereo not given): the GI50 was 68.7 µM (inactive) in test [1]; 28.8 µM (inactive) in test [2]; 32.8 µM (inactive) in test [3]; 28 µM (inactive) in [4]; 45.9 µM (inactive) in test [5]; 36.9 µM (inactive) in [6]. Besides, the GI50 in [7] was 64.1 µM (inactive); in [8], 98.9 µM (inactive); in test [9], 93.1 µM (inactive); in [10], 23.9 µM (inactive); in test [11], 46.9 µM (inactive); in test [12], 36.1 µM (inactive). Also, the GI50 in test [13] was 78.5 µM (inactive); in [14], 66.2 µM (inactive); in test [15], 24.5 µM (inactive); in test [16], 66.5 µM (inactive); in test [17] it was 56.4 µM (inactive); in test [18] it was 44.6 µM (inactive).

As for `NC1(CCNC(=O)c2ccccc2)CCN(C(=O)c2ccccc2)CC1`, the GI50 was > 100 µM (inactive) in [1]; > 10 µM (inactive) in [2]; > 100 µM (inactive) in test [3]; > 100 µM (inactive) in test [4]; > 100 µM (inactive) in test [5]; > 100 µM (inactive) in [6]. In addition, the GI50 was > 100 µM (inactive) in test [7]; > 100 µM (inactive) in [10]; > 100 µM (inactive) in test [11]; 41.7 µM (inactive) in test [12]; > 100 µM (inactive) in test [13]; > 100 µM (inactive) in test [14]. Further, the GI50 in test [15], in test [17] and in test [18] was > 100 µM (inactive) each time.

`COc1cc(O)c2c(O)c3c(c4c2c1[C@]1(C4)C(C)=CCCC1(C)C)[C@H](O)[C@@]1(O)CC(O)=C(C(N)=O)C(=O)[C@@]1(O)C3=O`: the GI50 in [1] is 0.0619 µM (active); in [2], 0.259 µM (active); in test [3], 0.189 µM (active); in test [4] it was 0.119 µM (active); in test [5], 0.247 µM (active); in [6] it was 0.0453 µM (active). The GI50 in test [7] was 0.231 µM (active); in test [8], 0.245 µM (active); in [9], 0.16 µM (active); in test [10], 0.348 µM (active); in [11], 0.324 µM (active); in [12] it was 0.108 µM (active). Besides, the GI50 in test [13] was 0.322 µM (active); in test [14], 0.209 µM (active); in test [15], 0.239 µM (active); in test [16] it was 0.228 µM (active); in [17] it was 0.0435 µM (active); in test [18], 0.269 µM (active).

In the case of `CCC1(C)NC(c2cnccn2)=NN1c1ccc(Cl)cc1` (stereo not given), the GI50 in test [1] was 45.3 µM (inactive); in test [2], > 100 µM (inactive); in test [3], 70.3 µM (inactive); in test [4] it was 65.9 µM (inactive); in test [5], 73.8 µM (inactive); in test [6], 52.8 µM (inactive). In addition, the GI50 was 21.9 µM (inactive) in [7]; 63.2 µM (inactive) in [8]; > 100 µM (inactive) in [9]; > 100 µM (inactive) in test [10]; > 100 µM (inactive) in test [11]; > 100 µM (inactive) in test [12]. The GI50 in test [13] is > 100 µM (inactive); in test [14] it was 66.8 µM (inactive); in test [15], > 100 µM (inactive); in [16], 39.8 µM (inactive); in test [17], 81.7 µM (inactive); in [18] it was 22.1 µM (inactive).

For the molecule `Cc1cn(C2CC(N=[N+]=[N-])C(CO)O2)c(=O)n(CCCCBr)c1=O` (stereo not given), the GI50 is > 100 µM (inactive) in [1]; 35.6 µM (inactive) in [2]; > 100 µM (inactive) in test [3]; 26.3 µM (inactive) in [4]; > 100 µM (inactive) in test [5]; 18.8 µM (inactive) in test [6]. Moreover, the GI50 in test [7], in test [8], in [9], in [10], in test [11] and in test [12] was > 100 µM (inactive) each time. For the same molecule, the GI50 in test [13] was > 100 µM (inactive); in test [14], > 100 µM (inactive); in [15], > 100 µM (inactive); in test [16] it was 40.9 µM (inactive); in test [17] it was > 100 µM (inactive); in [19], 65.5 µM (inactive).

For `Cc1nc(Nc2ccccc2Cl)sc1C(=O)CC(=O)C(N)=O`, the GI50 was 29 µM (inactive) in [1]; 57.4 µM (inactive) in test [2]; > 100 µM (inactive) in test [3]; 19.7 µM (inactive) in [4]; 58.9 µM (inactive) in test [5]; 41.9 µM (inactive) in [6]. The GI50 in [7] was > 100 µM (inactive); in test [8] it was > 100 µM (inactive); in test [9] it was > 100 µM (inactive); in test [10] it was 44.9 µM (inactive); in test [11], > 100 µM (inactive); in test [12] it was 21.2 µM (inactive). The GI50 in [13] is 34.8 µM (inactive); in [14], 10.9 µM (inactive); in [15] it was 22.7 µM (inactive); in test [16], > 100 µM (inactive); in test [17], 32.6 µM (inactive); in test [19] it was 51.4 µM (inactive).

As to `c1ccc(C2=Nc3nc4ccccc4n3C(c3ccccc3)C2)cc1` (stereo not given), the GI50 is > 100 µM (inactive) in [1]; 70.6 µM (inactive) in test [2]; > 100 µM (inactive) in test [3]; > 100 µM (inactive) in test [4]; > 100 µM (inactive) in [5]; > 100 µM (inactive) in [6]. Further, the GI50 was > 100 µM (inactive) in [7]; > 100 µM (inactive) in [8]; 36 µM (inactive) in [9]; > 100 µM (inactive) in test [10]; > 100 µM (inactive) in test [11]; > 100 µM (inactive) in test [12]. Also, the GI50 in test [13] is 79.8 µM (inactive); in test [14] it was > 100 µM (inactive); in [15] it was > 100 µM (inactive); in [16] it was > 100 µM (inactive); in test [17], > 100 µM (inactive); in test [18] it was > 100 µM (inactive).

Turning to `CCC(=O)OC1=C(c2ccccc2)Sc2ccc(Cl)cc2-n2cccc21`, the GI50 in [1] is 7.67 µM (inactive); in test [2], 4.47 µM (inactive); in [3] it was > 10 µM (inactive); in test [4] it was > 10 µM (inactive); in [5], > 10 µM (inactive); in test [7] it was > 10 µM (inactive). In addition, the GI50 in test [8] was > 10 µM (inactive); in test [9], > 10 µM (inactive); in [10] it was > 10 µM (inactive); in test [12] it was > 10 µM (inactive); in [13] it was 9.62 µM (inactive); in [19], > 10 µM (inactive). Also, in [18], the GI50 is 7.52 µM (inactive).
